41 molecules from ChEMBL document CHEMBL1201862, “PubChem BioAssay data set” (2004) can be followed below.

Assay [1] in a line: cells. The assay is classed as functional.
Assay [2] is described as follows: NIH-3T3 fibroblast cytotoxicity, dose response, cytotoxicity control, cell-based, fluorescence, Alamar Blue, secondary assay (AID 2327).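 Also: NIH-3T3 mouse fibroblasts cultured with fluconazole at 8 µg/mL.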 The assay is classed as functional. (In general: The colour change of resazurin is a common sign of viable cells or microbes.)
Assay [3] can be described thus: fluconazole-exposed Candida albicans growth modulators – fluorescence, retest, confirmation (AID 2467). The assay is classed as functional, cell-based.
A short description of assay [4]: Luminescence Cell-Based Dose Response HTS to Identify Inhibitors of 5'UTR Stem-Loop Driven Prion Protein mRNA Translation in H4 Neuroglioblastoma Cells. [Related pubchem assays: 1827 (Project Summary), 1813 (Primary HTS)]. It is filed as functional.
Assay [5] can be described thus: luciferase reporter signal suppression in cells – H4 neuroglioma cells, luminescence, dose response (AID 1990). It is filed as functional, cell-based. Background: In a reporter assay the amount or activity of a reporter protein is the signal.
Assay [6] can be described thus: viability of uninfected HEp-2 cells – cell-based, HTS, cytotoxicity control for RSV inhibitor project, dose response (AID 2410). The assay is classed as functional. The note with it: human respiratory syncytial virus.
Assay [7] in a line: alpha-synuclein stem-loop luciferase translation blockers – H4 neuroglioma cells, luminescence, confirmation (AID 1988). It is filed as functional, cell-based.
The target of assay [8] is Luciferin 4-monooxygenase (Photinus pyralis, UniProt P08659). Kind of assay: inhibition of purified Photinus pyralis luciferase – biochemical, luminescence, dose response (AID 1891).
A short description of assay [9]: Luminescence Cell-Based Dose Confirmation HTS to Identify Inhibitors of Platelet Dense Granule Release. [Related pubchem assays: 1663 (Primary HTS), 1678 (Summary of Project)]. The assay is classed as functional.
Assay [10] concerns the target T1, Streptokinase A (Streptococcus pyogenes serotype M1, UniProt P10520).
T1 sequence (P10520 whole entry): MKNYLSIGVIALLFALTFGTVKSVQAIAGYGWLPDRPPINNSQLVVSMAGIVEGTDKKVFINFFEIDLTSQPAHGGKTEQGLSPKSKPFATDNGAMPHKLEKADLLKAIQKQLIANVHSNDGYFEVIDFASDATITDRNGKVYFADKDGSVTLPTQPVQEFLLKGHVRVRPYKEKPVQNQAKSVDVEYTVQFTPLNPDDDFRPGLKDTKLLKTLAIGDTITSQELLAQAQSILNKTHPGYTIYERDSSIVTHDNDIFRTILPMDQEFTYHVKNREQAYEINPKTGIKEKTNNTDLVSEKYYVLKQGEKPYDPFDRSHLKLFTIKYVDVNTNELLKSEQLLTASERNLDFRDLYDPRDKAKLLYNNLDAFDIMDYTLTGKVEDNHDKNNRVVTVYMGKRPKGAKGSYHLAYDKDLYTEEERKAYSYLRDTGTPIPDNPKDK
Kind of assay: viability-normalized secreted streptokinase activity reduction – plasminogen activation absorbance, OD405, dose response (AID 1914).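 Also: secreted streptokinase activity via plasminogen activation per viability signal from cell pellet.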 It is filed as functional, Streptococcus pyogenes M1 GAS.

In assay [11] the test system is Streptococcus. Kind of assay: GAS UMAA2166 growth inhibition – luminescence, BacTiterGlo, counter-screen for streptokinase expression inhibitor project, dose response (AID 1915).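 Also: potency for reduction of bacterial viability or growth.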 The assay is classed as functional, organism-based. Background: A counterscreen serves to expose hits that act by an unwanted route or on another target.
Assay [12] relates to Streptococcus sp. 'group A'. The experiment in a line: Streptococcus pyogenes SK(-)GAS viability under kanamycin – luminescence, BacTiterGlo, confirmation, counter-screen for streptokinase expression inhibitor project, dose response (AID 1900). The assay is classed as functional, organism-based.
Assay [13] addresses Cytochrome P450 3A4 (Homo sapiens, UniProt P08684).
The nature of assay [14]: reduction of Shn3 3'UTR-driven luciferase in osteoblasts – cell-based, Clone20 osteoblasts, firefly luciferase, cherry-picked, dose response (AID 624132).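 Also: firefly luciferase luminescence from reporter carrying the Shn3 3'UTR in osteoblasts.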 The assay is classed as functional.
Assay [15] deals with T2, Rac GTPase-activating protein 1 (Homo sapiens, UniProt Q9H0H5).
T2 sequence (Q9H0H5 whole entry): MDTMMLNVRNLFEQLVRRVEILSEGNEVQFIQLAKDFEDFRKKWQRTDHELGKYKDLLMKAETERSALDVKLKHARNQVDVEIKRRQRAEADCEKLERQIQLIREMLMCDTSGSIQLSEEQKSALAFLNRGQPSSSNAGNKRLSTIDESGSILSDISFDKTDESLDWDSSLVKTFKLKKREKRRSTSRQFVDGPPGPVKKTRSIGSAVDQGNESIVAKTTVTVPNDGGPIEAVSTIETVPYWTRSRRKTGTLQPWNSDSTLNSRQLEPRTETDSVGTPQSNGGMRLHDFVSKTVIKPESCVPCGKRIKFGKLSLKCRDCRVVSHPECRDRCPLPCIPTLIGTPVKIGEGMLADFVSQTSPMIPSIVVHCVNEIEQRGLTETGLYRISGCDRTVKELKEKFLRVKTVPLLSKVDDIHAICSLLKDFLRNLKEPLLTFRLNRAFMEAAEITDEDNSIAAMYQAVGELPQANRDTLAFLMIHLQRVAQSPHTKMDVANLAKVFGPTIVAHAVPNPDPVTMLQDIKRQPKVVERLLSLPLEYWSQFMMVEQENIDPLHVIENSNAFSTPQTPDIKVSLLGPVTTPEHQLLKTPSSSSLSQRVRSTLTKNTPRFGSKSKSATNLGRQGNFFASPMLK
The experiment in a line: blockers of MgcRacGAP-driven Rac1 GTP hydrolysis – biochemical, ADP Hunter fluorescence, primary and confirmatory, confirmation (AID 624330). It is filed as functional.

In assay [16] the target is T3, Ubiquitin-conjugating enzyme E2 N (Homo sapiens, UniProt P61088).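 Also: Dose-response confirmation in a TR-FRET assay detecting UBC13-driven polyubiquitin chain formation, inhibition measured.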
T3 sequence (P61088 whole entry): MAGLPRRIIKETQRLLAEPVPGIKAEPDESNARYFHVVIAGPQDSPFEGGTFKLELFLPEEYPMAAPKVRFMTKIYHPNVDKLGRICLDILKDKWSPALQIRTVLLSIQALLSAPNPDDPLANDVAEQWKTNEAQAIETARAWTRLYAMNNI
It is filed as functional.

Assay [17] has as its target Paired box protein Pax-8 (Homo sapiens, UniProt Q06710). The experiment in a line: PAX8 transcriptional activity inhibition in RMG-I – RMG-I cells, luciferase, cherry-pick, dose response (AID 687027).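 Also: luciferase reporter driven by Pax8 target thyroperoxidase promoter measured by SteadyGlo luminescence.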 The assay is classed as functional, cell-based.
The nature of assay [18]: Trypanosoma cruzi growth suppression in host cells – NIH3T3 host cells, beta-gal luminescence, confirmation (AID 2044).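 Also: intracellular parasites grown in NIH/3T3 mouse fibroblasts as host cells; luminescent beta-galactosidase reporter signal from transgenic T. cruzi replicating inside host cells; inhibitors lower the luminescence signal.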 It is filed as functional, cell-based.
Assay [19] is described as follows: NIH3T3 cell viability loss – ATP luminescence, mouse fibroblasts, counter-screen, dose response (AID 2010).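 Also: cells exposed to compound for about 90 hours before reading.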 The assay is classed as functional, cell-based.

Calls of active or inactive are those of the source. Rule as the data show it, for most assays here: actives have a measured EC50 and inactives only a lower limit.

Chain of Luciferin 4-monooxygenase (P08659 whole entry): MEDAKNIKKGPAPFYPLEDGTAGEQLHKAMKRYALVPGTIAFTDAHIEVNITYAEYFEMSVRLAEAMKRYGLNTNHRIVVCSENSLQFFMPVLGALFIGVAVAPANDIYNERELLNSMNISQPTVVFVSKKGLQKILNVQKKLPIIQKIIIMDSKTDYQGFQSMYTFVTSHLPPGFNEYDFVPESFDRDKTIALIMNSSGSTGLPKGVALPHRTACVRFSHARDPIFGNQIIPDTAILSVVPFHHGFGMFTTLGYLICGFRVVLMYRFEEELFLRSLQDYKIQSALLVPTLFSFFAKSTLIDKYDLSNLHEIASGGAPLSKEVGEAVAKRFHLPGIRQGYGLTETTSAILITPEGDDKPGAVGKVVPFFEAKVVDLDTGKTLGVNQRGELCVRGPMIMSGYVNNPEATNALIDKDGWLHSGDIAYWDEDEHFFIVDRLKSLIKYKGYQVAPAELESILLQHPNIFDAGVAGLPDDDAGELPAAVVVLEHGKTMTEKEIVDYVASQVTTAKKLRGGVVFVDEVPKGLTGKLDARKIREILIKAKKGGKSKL
Chain of Paired box protein Pax-8 (Q06710 whole entry): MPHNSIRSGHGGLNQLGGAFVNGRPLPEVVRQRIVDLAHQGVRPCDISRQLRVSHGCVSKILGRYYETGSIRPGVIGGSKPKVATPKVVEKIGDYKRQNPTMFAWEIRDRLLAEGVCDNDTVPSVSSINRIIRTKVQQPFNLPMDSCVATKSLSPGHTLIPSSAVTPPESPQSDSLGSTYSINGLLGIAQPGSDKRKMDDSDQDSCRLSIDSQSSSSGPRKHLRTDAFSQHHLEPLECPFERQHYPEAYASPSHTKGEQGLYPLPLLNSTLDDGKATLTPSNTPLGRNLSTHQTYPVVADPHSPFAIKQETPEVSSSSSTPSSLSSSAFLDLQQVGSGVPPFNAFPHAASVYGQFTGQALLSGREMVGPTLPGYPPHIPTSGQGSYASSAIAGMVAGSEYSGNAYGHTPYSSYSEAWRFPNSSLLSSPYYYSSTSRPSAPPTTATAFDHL
Chain of Cytochrome P450 3A4 (P08684 whole entry): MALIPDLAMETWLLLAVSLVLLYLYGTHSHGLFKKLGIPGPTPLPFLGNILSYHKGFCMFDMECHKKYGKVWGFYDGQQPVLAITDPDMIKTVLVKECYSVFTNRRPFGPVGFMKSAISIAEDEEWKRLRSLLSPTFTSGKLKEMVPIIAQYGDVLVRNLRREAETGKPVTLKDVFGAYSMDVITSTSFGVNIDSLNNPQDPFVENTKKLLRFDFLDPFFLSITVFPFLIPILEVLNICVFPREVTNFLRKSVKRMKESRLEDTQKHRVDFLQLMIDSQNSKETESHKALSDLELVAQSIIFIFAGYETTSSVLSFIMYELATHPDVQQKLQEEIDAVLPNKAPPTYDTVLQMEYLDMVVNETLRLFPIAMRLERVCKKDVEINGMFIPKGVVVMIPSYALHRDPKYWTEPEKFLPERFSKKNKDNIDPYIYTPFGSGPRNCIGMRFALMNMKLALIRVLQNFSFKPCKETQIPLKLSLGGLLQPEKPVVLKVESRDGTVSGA

Regarding `COc1ccccc1C1=Nn2c(nnc2C2CCCCC2)SC1`, in [1], the IC50 (as a rule, the concentration that gives 50% inhibition) was 12.1 µM (active). `CCCCC(=O)Nc1ncc([N+](=O)[O-])s1`: the EC50 (as a rule, the concentration at which the effect is half-maximal) is > 160 µM (inactive) in assay [2] and 0.141 µM (active) in assay [3]. With `CN(C1=NC(=O)C(CC(=O)Nc2ccc(Br)cc2)S1)c1ccc(O)cc1` (stereo not given), the concentration for a half-maximal effect (EC50) in assay [4] is > 120 µM (not active); in assay [5], 66.4 µM (active); in [7] it was 23.8 µM (active). Further, the CC50 (commonly the concentration that lowers cell viability or growth by half) in assay [6] was 36 µM (active). Turning to `CC1CCCCN1Cc1nc2c(c(=O)n(C)c(=O)n2C)n1CCCc1ccccc1` (stereo not given), the EC50 in [8] and in assay [9] was > 112 µM (not active) in each case.

`Cc1cccc(NC(=O)NC2CCCCCCC2)c1`: the EC50 in [2] was 24.8 µM (active); in assay [3], > 38 µM (not active). As for `Cc1ccc(NC(=S)NC(=O)C2CC2)cc1Cl`, the EC50 was > 160 µM (inactive) in assay [2] and 3.32 µM (active) in assay [3]. Consider `Cc1ccc(C2CC(c3ccccc3OC(F)F)Nc3ncnn32)cc1` (stereo not given), for which the EC50 in assay [8] and in [9] was > 112 µM (not active) throughout. Consider `Cc1cccc(CCNC(=O)c2cc(S(=O)(=O)N3CCOCC3)cn2C)c1`, for which the EC50 in assay [8] and in assay [9] was > 112 µM (not active) throughout. As for `CCOc1ccc(NC(=O)CN(C)C(=O)C2CC(=O)N(c3ccc4c(c3)OCCO4)C2)cc1OCC` (stereo not given), the EC50 in assay [10], in assay [11] and in [12] was > 150 µM (not active) each time. Turning to `Cc1cccc(-n2cnc3c(sc4nc(N5CCOCC5)c5c(c43)CCCC5)c2=O)c1`, the values for the EC50 in [8] and in assay [9] were > 112 µM (not active) and 50 µM (active), respectively. On to `COCCSc1nnc(NC(=O)CCS(=O)(=O)Cc2ccccc2)s1`, for which the IC50 in assay [1] is 45.5 µM (active). As for `O=C(c1ccc(F)cc1)N1CCN2C(=O)c3ccccc3C12c1ccc(Cl)cc1` (stereo not given), the CC50 in [6] is 29 µM (active).

`CCOC(=O)Nc1ccc2c(COC(=O)CNS(=O)(=O)c3cccc(Br)c3)cc(=O)oc2c1`: the 50% effective concentration (EC50) in [8] and in assay [9] was > 112 µM (not active) each time. Take `Cc1c(NCc2cc(Cl)cc(Cl)c2O)c(=O)n(-c2ccccc2)n1C`: the EC50 in [10] is 21.1 µM (active); in assay [11], > 150 µM (not active); in assay [12], 4.76 µM (active).

Regarding `O=C(OCC#CCSc1nnc(-c2ccccc2)o1)c1ccco1`, the IC50 in assay [1] is 21.1 µM (active). Consider `Cc1cc(C)c(S(=O)(=O)Nc2cccc(-n3cnnn3)c2)c(C)c1`, for which the EC50 in assay [2] was 29.6 µM (active); in [3], 10.9 µM (active).

Turning to `COc1ccc(C(=O)NC(=S)NC(C)(C)C)cc1Br`, the EC50 in assay [8] and in assay [9] was > 112 µM (not active) throughout. Also, the AC50 (in general, the concentration at which the activity in the assay is half-maximal) in [13] is 14.1 µM (inconclusive). Take `CC(=O)N1CCOc2cc(S(=O)(=O)NCc3ccc(F)cc3)c(C)cc21`: the AC50 in assay [14] was > 70 µM (inactive).

With `CCCc1cc(C(=O)NC2CCCC2)no1`, the EC50 in assay [8] and in [9] was > 112 µM (not active) each time. As for `CN(C)c1ccc(NC(=O)CCN2C(=O)c3cccc([N+](=O)[O-])c3C2=O)cc1`, the IC50 in [15] is 86.5 µM (active). `O=C(Oc1ccc(Cl)c2cccnc12)c1cccc([N+](=O)[O-])c1`: the values for the EC50 in assay [2] and in assay [3] were 19.9 µM (inconclusive) and > 38 µM (not active), respectively. Regarding `O=C(Nc1ccc(Cl)cc1)c1ccc(-n2cncn2)c([N+](=O)[O-])c1`, the CC50 in assay [6] is 20.6 µM (active). As to `O=C(CSC(=S)N1CCOCC1)c1cc(Br)cc(Br)c1O`, the 50% effective concentration (EC50) was > 150 µM (not active) in assay [10], > 150 µM (not active) in assay [11] and 25 µM (active) in assay [12].

For the molecule `O=C(Cc1ccc(Br)cc1)Nc1nc2ccccc2[nH]1`, the EC50 in [10], in [11] and in assay [12] was > 150 µM (not active) each time. Regarding `Cc1ccccc1C1CC(c2ccccc2OC(F)F)Nc2ncnn21` (stereo not given), the EC50 in assay [8] and in assay [9] was > 112 µM (not active) throughout. In the case of `Cc1cccc(-n2ncc3c2CCCC3NC(=O)CCN2Cc3ccccc3C2=O)c1C` (stereo not given), the EC50 in assay [10], in [11] and in assay [12] was > 150 µM (not active) throughout.

Regarding `CCCOC(=O)c1cc(NC(=O)/C=C/c2ccccc2)ccc1O`, the CC50 in assay [6] is 20.4 µM (active). Take `CCCc1cc(C(=O)Nc2ccc(C(=O)c3ccc(F)cc3)cc2)n(C)n1`: the EC50 in [10] is 46.9 µM (active); in [11] it was > 150 µM (not active); in assay [12], 19.7 µM (active). With `Cc1ccccc1CCNC(=O)C1CCN(S(=O)(=O)c2ccc(-n3cnnn3)cc2)CC1`, the EC50 in [8] and in assay [9] was > 112 µM (not active) each time. Regarding `CN(C)c1ccc(/C=C2/NC(=O)NC2=O)cc1`, the IC50 in assay [15] was 51.2 µM (active). Take `COc1ccc(Cl)cc1C(=O)NCc1ccc2c(c1)OCO2`: the half-maximal cytotoxic concentration (CC50) in assay [6] is 34.4 µM (active). Same read-out and setting: in the case of `COc1cc2c(cc1OC)CN(C(=O)c1ccc3[nH]c(C)c(C)c3c1)CC2` it was > 50 µM (active).

Regarding `O=C(C(=O)N1CCOCC1)c1cn(Cc2ccc(F)cc2)c2ccccc12`, the IC50 in assay [16] is > 20 µM (inactive). Regarding `COC(=O)c1ccc(NCc2c(O)ccc(O)c2Br)cc1Cl`, in assay [15], the IC50 was 57.6 µM (active). For `Cc1cccc(/N=C2/Sc3nc4c(C)c(C)ccc4cc3CN2CCN2CCOCC2)c1`, in assay [6], the CC50 was 16.1 µM (active). With `CN(/N=C/c1ccc(O)cc1O)c1nc(-c2ccccc2)cc(-c2ccccc2)n1`, in assay [17], the half-maximal activity concentration (AC50) is 26.9 µM (active).

Turning to `CC1=Nc2ncnn2C(c2cccnc2)/C1=C(\O)OC1CCCCC1` (stereo not given), the EC50 was 2.35 µM (active) in assay [18] and > 60 µM (not active) in assay [19]. In [17], the AC50 is 36.1 µM (active). Consider `O=C(CCN1CCN(C/C=C/c2ccccc2)CC1)Nc1ccc(Cl)cc1`, for which the IC50 in [1] is 34.6 µM (active). With `O=C(Nc1ccccc1)N1CCN(c2nc(-c3ccccc3)ns2)CC1`, the IC50 in assay [16] is > 20 µM (inactive). On the same count and under the same terms, in the case of `O=c1c2sccc2[nH]c(=S)n1-c1ccccc1` it was > 20 µM (inactive). With `COC(=O)N/N=C/c1c[n+]([O-])c2ccccc2[n+]1[O-]` [CARBADOX], the half-maximal effective concentration (EC50) is > 150 µM (not active) in assay [10], 11.5 µM (active) in assay [11] and 9.12 µM (active) in assay [12].
